The source of these data is patent US12674178B2, “Methods for the evaluation of neutralizing antibodies for adeno-associated virus” (REGENTS OF THE UNIVERSITY OF MINNESOTA, priority 2020, dated 2026).

One series relates to AAV10. The experiment in a line: AAV10/Luc infection of HEK293 cells, luciferase readout. Type of series: cell-based, adeno-associated virus. Particulars: AAV10, CC pre-treatment, MOI 2000. The protocol: (§1) Method: Day 0: • 1. Remove culture medium (DMEM supplemented with 10% heat-inactivated FBS and 1% penicillin/streptomycin) from HEK293 cell culture, gently wash cells twice with 100 μL of PBS. Cells should be at low passage and approximately 80% confluent without being overgrown. Harvest cells by trypsinization and perform a cell count. • 2. Resuspend cells in complete DMEM culture medium at 200,000 cells/mL. Seed cells in 96-well plates with black or white walls and clear bottoms: 20,000 cells/well in 100 μL of complete media. • 3. Incubate cells overnight in C02 incubator at 37° C. Day 1: • 1. Confirm microscopically that cells are 50-80% confluent. • 2. […] Each dilution was analyzed at least in triplicate. […] Set up spectrophotometer to read chemiluminescence. If the spectrophotometer is BioTek the read conditions are: 500 ms, gain 125-135, height of plate 3.75 mm. Add 50 μL of Bright Glo substrate to each well, incubate plate 3 min in the dark and then read. For maximal light intensity, samples should be measured within 15 minutes of reagent addition.
(§2) The dramatic improvement of AAV8 transduction in vitro in the presence of CC prompted test to determine if similar effect could be achieved for other AAV serotypes. The transduction efficiency of ten common AAV serotypes at MOI 2000 vg/cell was analyzed. […]

Another series deals with AAV8. The series can be described thus: AAV8-Luc infection of HEK293 cells, luciferase readout. Type of series: cell-based, adeno-associated virus. As to conditions: at least one model system, cells pretreated. The procedure: (§3) HEK293 cells were infected with AAV8-Luciferase (Luc) or AAV2-Luc at an MOI of 5000 in the presence of several pharmacologically active drugs (TNFα+LPS, TNFα+IL-6, dorsomorphin (also known as “Compound C” or “CC”), SP600125, or rosiglitazone). The drugs were added 1 hour before injection with AAV-Luc. 24 hours after AAV-Luc was added, luciferase was detected, as further described in Example 2.
as §1, with “1.” for “1. Confirm microscopically that cells are 50-80% confluent. • 2.”, “addition. […]” for “addition.”

In the next series the test system is HEK293 cells. The series can be described thus: Cytotoxicity of the drug to the cells to be infected. Type of series: cell-based.
The next series deals with AAV2. The experiment in a line: AAV2-Luc infection of HEK293 cells, luciferase readout. Type of series: cell-based, adeno-associated virus. As to conditions: AAV2, CC pre-treatment, 48 hours, MOI 2000. The procedure: as §3
as §1, with “count.” for “count. • 2. Resuspend cells in complete DMEM culture medium at 200,000 cells/mL. Seed cells in 96-well plates with black or white walls and clear bottoms: 20,000 cells/well in 100 μL of complete media. • 3. Incubate cells overnight in C02 incubator at 37° C. Day 1: • 1. Confirm microscopically that cells are 50-80% confluent.”
as §2

In the case of `c1cc(-c2cnn3cc(-c4ccc(OCCN5CCCCC5)cc4)cnc23)ccn1` [dorsomorphin], the “luciferase activity, times higher than background” value is reported as 8 times with AAV10 and “more than 1000 times” in the series with AAV2. Moreover, in the series with AAV8, the “CC pretreatment concentration giving statistically significant increase in activity of AAV/Luc” value was “at least 2.5 μM”. The cytotoxic effects entry in the series on HEK293 cells (HEK293 infected with AAV2/AAV8) was “without cytotoxic effects”. In the series with HEK293 cells (at least one model system), the “CC concentration that became toxic to cells” value is on record as “higher than 20 μM”.
